According to patent publication US11400084B2 (BioTheryX, Inc., priority 2018, dated 2022):

Tests used:
Assay type in all cases: cell-based
TNFα = assay: TNF-α inhibition assay, LPS-induced PBMCs or CD14+ monocytes, Meso Scale; conditions: 100 ng/mL LPS 18-24 h
Experimental: (§1) Either frozen primary blood mononuclear cells (PBMCs) or frozen CD14+ mobilized peripheral blood monocytes were purchased from AllCells (PB003F, Normal Peripheral Blood MNC (Alameda, Calif.)). Cells were quick thawed, washed 1-time with RPMI-1640 (10% FBS/1% Pen-Strep) and plated in 96 well plates at 200,000 cells per well. Cells were pretreated with DMSO only or with the indicated compound for 1 h and then induced with 100 ng/mL lipopolysaccharide (LPS) for 18-24 h. The supernatant was analyzed for IL-1β, IL-6, and TNFα, using Meso Scale assay according to manufacturer's protocol. The negative control wells were treated with DMSO.

GSPT1 = target: T1, GSPT1 (Homo sapiens, UniProt P15170+Q96SW2); assay: Western blot GSPT1 degradation assay in MV-4-11 cells; conditions: 1 μM, MV-4-11 cells, 6-8 hours
T1 construct: whole cell protein extracts were separated on 4-12% SDS-polyacrylamide gels; endogenous in cells; host or cells: MV-4-11
Experimental: (§2) MV-4-11 cells were grown in RPMI 1640 media supplemented with 10% fetal bovine serum, streptomycin and penicillin.
(§3) Cells were cultured at approximately 10^6 cells per mL and incubated in DMSO or the indicated compound for 6-8 hours. Whole cell extracts were prepared using RIPA buffer according to manufacturer's protocol (Pierce). Briefly, 3×10^6 cells were washed once in PBS, the cell pellets were resuspended in RIPA buffer and allowed to incubate for 15 minutes on ice. Cells debris was removed by centrifugation and the cleared whole cell lysates were transferred to new tubes for further analysis.
(§4) For Western blot analysis, whole cell protein extracts were separated on 4-12% SDS-polyacrylamide gels, transferred to nitrocellulose and probed with the indicated primary antibodies. Membranes were subsequently washed and probed with the appropriate IRDye secondary antibodies (LI-COR). The signal was detected using the Odyssey Imaging System (LI-COR).
(§5) The following antibodies were used in these studies: Anti-eRF3/GSPT1: Abcam, ab126090 (Cambridge, Mass.); Anti-Ikaros: Abcam, ab191394 (Cambridge, Mass.); Anti-CK1α: Abcam, ab108296 (Cambridge, Mass.); β-actin (8H10D10) mouse monoclonal antibody: Cell Signaling Technology, #3700 (Danvers, Mass.); IRDye 680RD Goat anti-rabbit antibody: LI-COR, 926-68071 (Lincoln, Nebr.); IRDye 800CW Goat anti-mouse antibody: LI-COR, 926-32210 (Lincoln, Nebr.).
(§6) In each of Tables 1-3, the % degradation values are reported as “A”, “B”, “C”, or “D.” “A” represents a % degradation value of less than 25% (value<25%); “B” represents a % degradation value of equal to or more than 25% and less than 50% (25%≤value<50%); “C” represents a % degradation value of equal to or more than 50% and less than 75% (50%≤value<75%); and “D” represents a % degradation value of equal to or more than 75% (value≥75%).

IL-1β = IL-1β inhibition assay, LPS-induced PBMCs or CD14+ monocytes, Meso Scale; conditions: 100 ng/mL LPS 18-24 h
Experimental: as §1

IKAROS = target: T2, IKAROS (Homo sapiens, UniProt Q13422+Q96SW2); assay: Western blot IKAROS degradation assay in MV-4-11 cells; conditions: 6-8 hours
T2 construct: endogenous in cells; host or cells: MV-4-11
Experimental: as §2, §3, §4, §5, §6

MOLM-13 cells = assay: MOLM-13 cell viability assay (CellTiter-Glo 2, 3 days, 2500 cells/well); conditions: Homo sapiens, MOLM-13, 72 h, percentage of DMSO control
Experimental: MOLM-13 cells were cultured in RPMI 1640 media supplemented with 10% fetal bovine serum, streptomycin and penicillin, and were plated in white walled 96-well plates at 2500 cells/well. Cells were incubated in DMSO (control) or the indicated compound for 3 days at 37° C. and 5% CO2. Following the incubation period, 100 μL of CellTiterGlow2 (CTG2) reagent (CellTiter-Glo®2 Luminescent Cell Viability Assay, Promega (Madison, Wis.)) was added to each well. Following a 10 minutes incubation with shaking, luminescence was measured using the EnVision Multimode plate reader.
The MOLM-13 cell viability values, measured as percentages of the DMSO control, are reported in Table 8 as “A”, “B”, “C”, or “D.” “A” represents a % viability value of less than 40% (value<40%). “B” represents a % viability value of equal to or more than 40% and less than 60% (40%≤value<60%). “C” represents a % viability value of equal to or more than 60% and less than 90% (60%≤value<90%). “D” represents a % viability value of equal or more than 90% (value≥90%).

IL-2 = IL-2 fold-change assay, anti-CD3 stimulated PBMCs, Mesoscale; conditions: Homo sapiens, PBMC, 24 h, fold difference from the DMSO control
Experimental: For the IL-2 analysis, 96 well plates were precoated with 1 μg/mL anti-human CD3 antibody (OKT3, eBioscience Inc., San Diego, Calif.). After washing with PBS, the indicated compound was added (50 μL/well) followed by PBMCs diluted at 3-4 million cells/mL (150 μL/well). Plates were incubated for 24 h and the supernatants collected for Mesoscale IL-2 analysis. IL-2 activity is measured as fold difference from the DMSO control.
In Table 7, the fold-change values are reported as “A”, “B”, “C”, or “D”. “A” represents a fold-change value of equal to or less than 1 (value≤1); “B” represents a fold-change value of more than 1 and equal to or less than 2 (1<value≤2); “C” represents a fold-change value of more than 2 and equal to or less than 3 (2<value≤3); and “D” represents a fold-change value of more than 3 (value>3).

CK1α = target: T3, CK1α (Homo sapiens, UniProt P48729+Q96SW2); assay: Western blot CK1α degradation assay in MV-4-11 cells; conditions: 6-8 hours
T3 construct: endogenous in cells; host or cells: MV-4-11
Experimental: as §2, §3, §4, §5, §6

T2 sequence (Q13422 whole entry): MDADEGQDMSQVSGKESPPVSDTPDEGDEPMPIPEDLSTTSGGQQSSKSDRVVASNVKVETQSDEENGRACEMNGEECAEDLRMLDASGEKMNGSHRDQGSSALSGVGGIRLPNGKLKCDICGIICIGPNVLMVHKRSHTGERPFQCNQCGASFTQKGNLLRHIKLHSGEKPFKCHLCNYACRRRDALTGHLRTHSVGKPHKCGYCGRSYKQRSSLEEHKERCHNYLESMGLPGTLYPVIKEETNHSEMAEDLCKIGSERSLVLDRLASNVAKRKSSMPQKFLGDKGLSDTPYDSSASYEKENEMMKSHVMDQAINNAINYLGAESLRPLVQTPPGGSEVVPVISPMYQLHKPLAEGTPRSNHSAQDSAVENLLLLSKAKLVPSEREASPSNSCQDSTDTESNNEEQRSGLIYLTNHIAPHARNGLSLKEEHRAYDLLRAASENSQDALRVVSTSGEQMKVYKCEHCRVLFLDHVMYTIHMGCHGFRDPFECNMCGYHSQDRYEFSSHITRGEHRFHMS
T2 sequence (Q96SW2 whole entry): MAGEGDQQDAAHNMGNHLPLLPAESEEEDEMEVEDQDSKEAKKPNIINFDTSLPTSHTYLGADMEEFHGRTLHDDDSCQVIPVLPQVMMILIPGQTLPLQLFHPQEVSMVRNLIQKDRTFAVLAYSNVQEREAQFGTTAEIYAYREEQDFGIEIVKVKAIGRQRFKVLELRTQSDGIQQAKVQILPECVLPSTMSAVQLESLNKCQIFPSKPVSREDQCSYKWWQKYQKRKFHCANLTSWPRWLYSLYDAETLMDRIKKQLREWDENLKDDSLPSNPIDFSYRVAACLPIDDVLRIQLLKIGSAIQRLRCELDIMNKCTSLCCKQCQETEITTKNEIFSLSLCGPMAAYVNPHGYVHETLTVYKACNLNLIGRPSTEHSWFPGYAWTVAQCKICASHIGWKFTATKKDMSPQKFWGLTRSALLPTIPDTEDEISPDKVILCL
T2 sequence (Q16531 whole entry partner): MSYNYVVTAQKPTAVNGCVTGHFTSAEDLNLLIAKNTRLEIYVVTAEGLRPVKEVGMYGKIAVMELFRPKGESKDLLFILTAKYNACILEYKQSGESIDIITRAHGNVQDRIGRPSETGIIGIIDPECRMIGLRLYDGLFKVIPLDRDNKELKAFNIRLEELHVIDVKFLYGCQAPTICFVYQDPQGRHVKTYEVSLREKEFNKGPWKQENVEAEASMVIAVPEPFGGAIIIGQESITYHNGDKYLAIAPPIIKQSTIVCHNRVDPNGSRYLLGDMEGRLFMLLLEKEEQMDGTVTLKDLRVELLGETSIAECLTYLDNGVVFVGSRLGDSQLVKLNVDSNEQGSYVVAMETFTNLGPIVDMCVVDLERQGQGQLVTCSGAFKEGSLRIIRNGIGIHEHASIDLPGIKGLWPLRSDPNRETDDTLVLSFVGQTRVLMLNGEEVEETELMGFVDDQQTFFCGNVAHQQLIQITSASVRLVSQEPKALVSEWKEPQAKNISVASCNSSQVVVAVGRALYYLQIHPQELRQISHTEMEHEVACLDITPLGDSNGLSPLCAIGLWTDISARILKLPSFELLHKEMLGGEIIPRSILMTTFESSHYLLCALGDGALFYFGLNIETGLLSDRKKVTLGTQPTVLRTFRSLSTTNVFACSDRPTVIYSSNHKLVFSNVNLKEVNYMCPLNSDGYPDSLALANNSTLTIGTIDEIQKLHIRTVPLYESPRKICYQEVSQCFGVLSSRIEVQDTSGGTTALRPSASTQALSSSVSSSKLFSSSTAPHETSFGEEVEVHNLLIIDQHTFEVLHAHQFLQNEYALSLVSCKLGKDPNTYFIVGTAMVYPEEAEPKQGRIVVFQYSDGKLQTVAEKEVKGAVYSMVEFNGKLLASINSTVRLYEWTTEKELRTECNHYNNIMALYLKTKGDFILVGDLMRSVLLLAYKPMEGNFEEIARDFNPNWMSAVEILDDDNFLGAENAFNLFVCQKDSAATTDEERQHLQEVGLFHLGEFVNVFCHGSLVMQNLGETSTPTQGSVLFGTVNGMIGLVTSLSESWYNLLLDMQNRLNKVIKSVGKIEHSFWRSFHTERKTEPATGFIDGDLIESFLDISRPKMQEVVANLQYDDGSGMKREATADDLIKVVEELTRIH
T1 sequence (P15170 whole entry): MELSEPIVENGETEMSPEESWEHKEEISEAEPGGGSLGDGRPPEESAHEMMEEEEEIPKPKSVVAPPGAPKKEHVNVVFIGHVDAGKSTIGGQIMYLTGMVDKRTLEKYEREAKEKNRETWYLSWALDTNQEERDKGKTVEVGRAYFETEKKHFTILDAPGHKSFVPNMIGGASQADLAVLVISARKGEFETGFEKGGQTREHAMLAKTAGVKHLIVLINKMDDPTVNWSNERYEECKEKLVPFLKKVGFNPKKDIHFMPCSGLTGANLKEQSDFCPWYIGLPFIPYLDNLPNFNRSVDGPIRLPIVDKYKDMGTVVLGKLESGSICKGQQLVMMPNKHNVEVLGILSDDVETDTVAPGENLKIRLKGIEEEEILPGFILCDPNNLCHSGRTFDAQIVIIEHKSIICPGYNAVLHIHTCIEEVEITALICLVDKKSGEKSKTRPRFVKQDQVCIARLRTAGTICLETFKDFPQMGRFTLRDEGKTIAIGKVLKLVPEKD
T1 sequence (Q96SW2 whole entry): as the sequence (Q96SW2 whole entry) above
T1 sequence (Q16531 whole entry partner): as the sequence (Q16531 whole entry partner) above
T3 sequence (P48729 whole entry): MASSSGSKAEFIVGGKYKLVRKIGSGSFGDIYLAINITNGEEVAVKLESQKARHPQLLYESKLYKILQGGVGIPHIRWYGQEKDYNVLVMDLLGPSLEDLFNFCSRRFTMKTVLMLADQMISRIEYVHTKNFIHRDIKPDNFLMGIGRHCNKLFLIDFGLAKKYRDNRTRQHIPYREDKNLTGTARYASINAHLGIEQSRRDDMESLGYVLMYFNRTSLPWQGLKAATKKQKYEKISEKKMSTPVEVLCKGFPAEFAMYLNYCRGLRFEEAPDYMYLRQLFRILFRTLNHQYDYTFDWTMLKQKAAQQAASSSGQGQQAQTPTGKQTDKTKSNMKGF
T3 sequence (Q96SW2 whole entry): as the sequence (Q96SW2 whole entry) above
T3 sequence (Q16531 whole entry partner): as the sequence (Q16531 whole entry partner) above

Compound	inhibition at 1 µM (TNFα) [%]	GSPT1 % Degradation at 1 μM (GSPT1)	inhibition at 1 µM (IL-1β) [%]	IKAROS % Degradation at 1 μM (IKAROS)	viability at 1 µM (MOLM-13 cells) [%]	fold induction at 1 µM (IL-2)	CK1α % Degradation at 1 μM (CK1α)
Cc1ccc(NCC(=O)NCc2scc3c2CN(C2CCC(=O)NC2=O)C3=O)cc1Cl (centres unmarked) [Compound 2, 2-((3-chloro-4-methylphenyl)amino)-N-((5-(2,6-dioxopiperidin-3-yl)-4-oxo-5,6-dihydro-4H-thieno[3,4-c]pyrrol-1-yl)methyl)acetamide]	50 to 75	C (a % degradation value of equal to or more than 50% and less than 75% (50%≤value<75%))	> 75	D (a % degradation value of equal to or more than 75% (value≥75%))	> 90	1 to 2	
Cc1ccc(NCC(=O)NCc2scc3c2CN(C2CCC(=O)NC2=O)C3=O)cc1N(C)C (centres unmarked) [Compound 4, 2-((3-(dimethylamino)-4-methylphenyl)amino)-N-((5-(2,6-dioxopiperidin-3-yl)-4-oxo-5,6-dihydro-4H-thieno[3,4-c]pyrrol-1-yl)methyl)acetamide]	50 to 75	B (a % degradation value of equal to or more than 25% and less than 50% (25%≤value<50%))	50 to 75	B (a % degradation value of equal to or more than 25% and less than 50% (25%≤value<50%))	> 90	2 to 3	
Cc1ccc(NCC(=O)NCc2cc3c(s2)CN(C2CCC(=O)NC2=O)C3=O)cc1Cl (centres unmarked) [Compound 6, 2-((3-chloro-4-methylphenyl)amino)-N-((5-(2,6-dioxopiperidin-3-yl)-4-oxo-5,6-dihydro-4H-thieno[2,3-c]pyrrol-2-yl)methyl)acetamide]	< 30		< 30				
Cc1ccc(NC(C)C(=O)NCc2scc3c2CN(C2CCC(=O)NC2=O)C3=O)cc1Cl (centres unmarked) [Compound 7, 2-((3-chloro-4-methylphenyl)amino)-N-((5-(2,6-dioxopiperidin-3-yl)-4-oxo-5,6-dihydro-4H-thieno[3,4-c]pyrrol-1-yl)methyl)propanamide]	> 75		> 75			2 to 3	
CN(C)c1ccc(NCC(=O)NCc2scc3c2CN(C2CCC(=O)NC2=O)C3=O)cc1Cl (centres unmarked) [Compound 8, 2-((3-chloro-4-(dimethylamino)phenyl)amino)-N-((5-(2,6-dioxopiperidin-3-yl)-4-oxo-5,6-dihydro-4H-thieno[3,4-c]pyrrol-1-yl)methyl)acetamide]	> 75		> 75			1 to 2	
O=C(CNc1ccc(CN2CCOCC2)cc1)NCc1scc2c1CN(C1CCC(=O)NC1=O)C2=O (centres unmarked) [Compound 9, N-((5-(2,6-dioxopiperidin-3-yl)-4-oxo-5,6-dihydro-4H-thieno[3,4-c]pyrrol-1-yl)methyl)-2-((4-(morpholinomethyl)phenyl)amino)acetamide]	50 to 75		50 to 75			1 to 2	
O=C(CNc1cccc(CN2CCOCC2)c1)NCc1scc2c1CN(C1CCC(=O)NC1=O)C2=O (centres unmarked) [Compound 11, N-((5-(2,6-dioxopiperidin-3-yl)-4-oxo-5,6-dihydro-4H-thieno[3,4-c]pyrrol-1-yl)methyl)-2-((3-(morpholinomethyl)phenyl)amino)acetamide]	30 to 50	B (a % degradation value of equal to or more than 25% and less than 50% (25%≤value<50%))	30 to 50	B (a % degradation value of equal to or more than 25% and less than 50% (25%≤value<50%))	< 40	1 to 2	
Cc1ccc(NCC(=O)NCc2ccc3c(c2)CN([C@H]2CCCC(=O)NC2=O)C3=O)cc1Cl [Compound 12]	< 30	C (a % degradation value of equal to or more than 50% and less than 75% (50%≤value<75%))	< 30			1 to 2	
Cc1ccc(NC(C)C(=O)NCc2ccc3c(c2)CN(C2CCC(=O)NC2=O)C3=O)cc1Cl (centres unmarked) [Compound 15, 2-((3-chloro-4-methylphenyl)amino)-N-((2-(2,6-dioxopiperidin-3-yl)-1-oxoisoindolin-5-yl)methyl)propanamide]						1 to 2	
Cc1ccc(NCC(=O)NCc2ccc3c(c2)C(=O)N(C2CCC(=O)NC2=O)C3=O)cc1Cl (centres unmarked) [Compound 19, 2-((3-chloro-4-methylphenyl)amino)-N-((2-(2,6-dioxopiperidin-3-yl)-1,3-dioxoisoindolin-5-yl)methyl)acetamide]	30 to 50	D (a % degradation value of equal to or more than 75% (value≥75%))		B (a % degradation value of equal to or more than 25% and less than 50% (25%≤value<50%))	60 to 90	≤ 1	
O=C(CNc1ccc(N2CCOCC2)c(Cl)c1)NCc1ccc2c(c1)CN(C1CCC(=O)NC1=O)C2=O (centres unmarked) [Compound 22, 2-((3-chloro-4-morpholinophenyl)amino)-N-((2-(2,6-dioxopiperidin-3-yl)-1-oxoisoindolin-5-yl)methyl)acetamide]	50 to 75		50 to 75			2 to 3	
Cc1cc(NCC(=O)NCc2ccc3c(c2)CN(C2CCC(=O)NC2=O)C3=O)ccc1N1CCOCC1 (centres unmarked) [Compound 23, N-((2-(2,6-dioxopiperidin-3-yl)-1-oxoisoindolin-5-yl)methyl)-2-((3-methyl-4-morpholinophenyl)amino)acetamide]	30 to 50	B (a % degradation value of equal to or more than 25% and less than 50% (25%≤value<50%))	30 to 50	C (a % degradation value of equal to or more than 50% and less than 75% (50%≤value<75%))	40 to 60	1 to 2	
CN(C)Cc1ccc(NCC(=O)NCc2ccc3c(c2)CN(C2CCC(=O)NC2=O)C3=O)cc1Cl (centres unmarked) [Compound 26]		C (a % degradation value of equal to or more than 50% and less than 75% (50%≤value<75%))					C (a % degradation value of equal to or more than 50% and less than 75% (50%≤value<75%))
